Our source for the TGI values is PubChem BioAssay (NCI).

The structures appear in SMILES notation.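 Compound exposure: 48 hours, 5 concentrations, 96-well plates. TGI is the concentration that stops growth completely.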

Test systems include SK-MEL-2 melanoma; RPMI-8226 leukemia; NCI-H23 lung; 786-0 renal; MDA-MB-231 breast; IGROV1 ovarian; EKVX NSCLC; CCRF-CEM leukemia; MDA-N; T-47D breast; BT-549 breast.
Assay in all cases: NCI-60 cell line screen, 48 h

Take `Cc1cccc(C)c1NC(=O)C(Cc1c[nH]c2ccccc12)NC(=O)OCc1ccccc1` (stereo unspecified): the TGI in the experiment on SK-MEL-2 melanoma turned out to be 34.4 µM; with RPMI-8226 leukemia it was 55.3 µM; in the experiment on NCI-H23 lung, 70.8 µM; in the experiment with 786-0 renal it was 53.6 µM; with MDA-MB-231 breast, 48.2 µM; with IGROV1 ovarian, 73 µM. For the same molecule, the TGI is 45.3 µM with EKVX NSCLC; 76.9 µM with CCRF-CEM leukemia; 54.6 µM with MDA-N; 61.2 µM in the experiment on T-47D breast; 65.3 µM in the experiment on BT-549 breast.
Regarding `O=C1NC(N2CCOCC2)=N/C1=C\c1ccco1`, the TGI in the experiment with SK-MEL-2 melanoma, in the experiment on RPMI-8226 leukemia, with NCI-H23 lung, in the experiment with 786-0 renal, with MDA-MB-231 breast and in the experiment on IGROV1 ovarian was more than 100 µM each time. For the same molecule, the TGI in the experiment with EKVX NSCLC, in the experiment on CCRF-CEM leukemia, with MDA-N, in the experiment with T-47D breast and in the experiment with BT-549 breast was more than 100 µM in each case.
Regarding `C/C(=N\N=C1/C(=O)OC(c2ccccc2)=C1C(=O)c1ccccc1)c1ccc([N+](=O)[O-])cc1`, the TGI in the experiment on SK-MEL-2 melanoma is more than 100 µM; in the experiment on RPMI-8226 leukemia it was 48.9 µM; with NCI-H23 lung it was more than 100 µM; in the experiment with 786-0 renal, more than 100 µM; in the experiment on MDA-MB-231 breast it was more than 100 µM; in the experiment on IGROV1 ovarian it was more than 100 µM. Also, the TGI was more than 100 µM in the experiment on EKVX NSCLC; 75.1 µM in the experiment on CCRF-CEM leukemia; more than 100 µM with MDA-N; more than 100 µM with T-47D breast; 72.6 µM in the experiment with BT-549 breast.
Turning to `Cc1nn(-c2ccccc2)c2c1C(c1cc3ccccc3nc1Cl)NC(=O)N2` (stereo unspecified), the TGI with SK-MEL-2 melanoma worked out at 29.5 µM; with RPMI-8226 leukemia, 61.4 µM; with NCI-H23 lung it was 37.6 µM; with 786-0 renal, 35.2 µM; in the experiment with MDA-MB-231 breast, 59.3 µM; in the experiment with IGROV1 ovarian, 24.9 µM. The TGI was 88.8 µM in the experiment with EKVX NSCLC; 71.6 µM with CCRF-CEM leukemia; 37.2 µM with MDA-N; more than 100 µM with T-47D breast; 36.8 µM in the experiment on BT-549 breast.
Take `N#CC(C#N)=C1SC(=Nc2ccccc2)C(=Nc2ccccc2)N1c1ccccc1`: the TGI in the experiment on SK-MEL-2 melanoma is 44.3 µM; in the experiment on RPMI-8226 leukemia it was more than 55.3 µM; in the experiment with NCI-H23 lung, 97.7 µM; in the experiment with 786-0 renal it was 60.8 µM; in the experiment with MDA-MB-231 breast, 26.6 µM; with IGROV1 ovarian it was 28.9 µM. The TGI in the experiment on EKVX NSCLC was more than 100 µM; in the experiment on CCRF-CEM leukemia, 6.35 µM; in the experiment with MDA-N it was 37.8 µM; in the experiment with T-47D breast, 18 µM; in the experiment with BT-549 breast, 21.5 µM.
`O=[N+]([O-])C(=C(Nc1cccc2cccnc12)Nc1cccc2cccnc12)C(Cl)=C(Cl)Cl`: the TGI in the experiment on SK-MEL-2 melanoma was more than 54 µM; with RPMI-8226 leukemia, more than 100 µM; in the experiment on NCI-H23 lung, more than 100 µM; in the experiment with 786-0 renal it was more than 100 µM; in the experiment with MDA-MB-231 breast it was 29.6 µM; in the experiment with IGROV1 ovarian, more than 100 µM. Moreover, the TGI with EKVX NSCLC was more than 100 µM; in the experiment on CCRF-CEM leukemia, more than 100 µM; with MDA-N it was more than 69.7 µM; with T-47D breast, more than 100 µM; in the experiment with BT-549 breast, more than 100 µM.
On to `Cc1cc(/N=C/c2ccc(N(C)C)cc2)n(-c2ccccc2)n1`, for which the TGI with SK-MEL-2 melanoma, in the experiment with RPMI-8226 leukemia, in the experiment on NCI-H23 lung, in the experiment with 786-0 renal, with MDA-MB-231 breast and in the experiment on IGROV1 ovarian was more than 100 µM each time. The TGI was more than 100 µM in the experiment with EKVX NSCLC; more than 100 µM in the experiment on CCRF-CEM leukemia; more than 100 µM in the experiment on MDA-N; 89.5 µM with T-47D breast; more than 100 µM in the experiment on BT-549 breast.
Turning to `CC(C)SC(=S)Sc1c(Cl)c(Cl)nc(Cl)c1Cl`, the TGI stood at 22.4 µM in the experiment on SK-MEL-2 melanoma; 4.29 µM with RPMI-8226 leukemia; 29 µM in the experiment on NCI-H23 lung; 5.54 µM in the experiment with 786-0 renal; 26.7 µM in the experiment with MDA-MB-231 breast; 20.1 µM in the experiment with IGROV1 ovarian. The TGI with EKVX NSCLC was 22.8 µM; in the experiment on CCRF-CEM leukemia, 6.09 µM; in the experiment with MDA-N, 11.1 µM; in the experiment on T-47D breast, 4.39 µM; in the experiment on BT-549 breast, 34.2 µM.
Regarding `O=S(=O)(O)C(CO)c1ccccc1` (stereo unspecified) (tested in a mixture with another compound), the TGI with SK-MEL-2 melanoma, in the experiment with RPMI-8226 leukemia, in the experiment with NCI-H23 lung, with 786-0 renal, in the experiment with MDA-MB-231 breast and in the experiment on IGROV1 ovarian was more than 100 µM in each case. Moreover, the TGI in the experiment with EKVX NSCLC, with CCRF-CEM leukemia, with MDA-N, in the experiment with T-47D breast and in the experiment with BT-549 breast was more than 100 µM each time.
On to `N[C@@H](Cc1ccccc1)C(=O)N1CCC[C@@H]1P(=O)(Oc1ccccc1)Oc1ccccc1`, for which the TGI with SK-MEL-2 melanoma, in the experiment on RPMI-8226 leukemia, with NCI-H23 lung, with 786-0 renal, with MDA-MB-231 breast and in the experiment on IGROV1 ovarian was more than 100 µM in each case. Further, the TGI in the experiment with EKVX NSCLC, in the experiment with CCRF-CEM leukemia, in the experiment on MDA-N, in the experiment on T-47D breast and in the experiment with BT-549 breast was more than 100 µM throughout.
For `C[C@H](CCC(=O)O)[C@H]1CC[C@H]2[C@@H]3C(=O)C[C@@H]4C[C@H](O)CC[C@]4(C)[C@H]3C[C@H](O)[C@]12C`, the TGI in the experiment on SK-MEL-2 melanoma, in the experiment with RPMI-8226 leukemia, with NCI-H23 lung, in the experiment on 786-0 renal, with MDA-MB-231 breast and in the experiment with IGROV1 ovarian was more than 100 µM in each case. For the same molecule, the TGI in the experiment on EKVX NSCLC, in the experiment with CCRF-CEM leukemia, in the experiment with MDA-N, with T-47D breast and in the experiment with BT-549 breast was more than 100 µM each time.
